Earlier results on two molecules are cited in patent publication US20190161439A1, “MARINE SESSILE ORGANISM-REPELLING COMPOSITION” (BASSERU CHEMICAL CO., LTD., priority 2015, published 2019).

The test system of the series is Barnacle. To be noted: reported values.

For the molecule `[C-]#[N+]C(C)(C)CCCCCCCCC=C` [AF-035], the “concentration corresponding to the 50% adhesion inhibition rate to Barnacle (EC50)” value is 0.03 µg/mL.

`CC(=O)O[C@H]1CC[C@](C)(C#N)CC1` [AF-034]: the “concentration corresponding to the 50% adhesion inhibition rate to Barnacle (EC50)” value was 0.0084 µg/mL.
